Results on 19 molecules are retold here after US8859580B2 (Boehringer Ingelheim International GmbH, priority 2007, dated 2014).

The target in the test is T1, 11β-HSD1 (Homo sapiens, UniProt P28845).
T1 construct: detecting cortisol generated from cortisterone by human liver microsomes; from tissue; host or cells: human liver microsomes
In words: In vitro inhibition of 11β-HSD1, HTRF detection of cortisol generated from cortisone by human liver microsomes. It is filed as biochemical. The settings on record: 1 hour at 37° C., pH 6.0, NADPH 200 μM, cortisone 80 nM, inhibition relative to carbenoxolone signal; for IC50: 11β-HSD IC50 (nM). The procedure, abridged:
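Cortisol formed from cortisone by human liver microsomes quantified by competitive HTRF immunoassay (XL665-cortisol, Eu-cryptate anti-cortisol antibody), 2 h detection, Em665/Em615 ratio converted via cortisol calibration curve. Percent inhibition relative to carbenoxolone signal; IC50 from curves.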
In general terms: TR-FRET usually uses a lanthanide donor and a delayed reading to cut background.

For orientation: IC50 means the concentration that inhibits the measured activity by half. A high value points to a need for much substance. The pIC50 is the IC50 on a negative log10 scale, so that one unit is a factor of ten.

pIC50: −log10 of the molar value. Where two headings read alike, the source gives them in different places.

T1 sequence (P28845 whole entry): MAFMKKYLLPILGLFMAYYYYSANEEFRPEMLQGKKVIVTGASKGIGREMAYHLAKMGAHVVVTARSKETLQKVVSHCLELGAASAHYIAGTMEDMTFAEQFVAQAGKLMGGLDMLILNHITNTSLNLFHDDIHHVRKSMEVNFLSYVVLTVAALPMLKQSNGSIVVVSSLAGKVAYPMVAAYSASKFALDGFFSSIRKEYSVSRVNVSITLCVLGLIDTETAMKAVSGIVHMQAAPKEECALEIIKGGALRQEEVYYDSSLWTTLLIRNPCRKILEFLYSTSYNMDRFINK

Molecule `COc1ccc2c(c1[N+](=O)[O-])[C@]1(C)CCN(C(=O)c3ccc4nc[nH]c4c3)[C@H](C2)[C@H]1C` [Example 261, (3H-Benzoimidazol-5-yl)-[(2R,6R,11S)-8-methoxy-6,11-dimethyl-7-nitro-1,2,5,6-tetrahydro-4H-2,6-methano-benzo[d]azocin-3-yl]-methanone] came in with an IC50 of 47 nM.

Take `Cc1nccc(-c2ccc3c(c2)[C@]2(C)CCN(C(=O)c4ccc5nc[nH]c5c4)[C@H](C3)[C@H]2C)n1` [Example 262, (3H-Benzoimidazol-5-yl)-[(2R,6R,11S)-6,11-dimethyl-8-(2-methyl-pyrimidin-4-yl)-1,2,5,6-tetrahydro-4H-2,6-methano-benzo[d]azocin-3-yl]-methanone]: half-maximal inhibition (IC50) required 73 nM.

`Cc1ccc(-c2ccc3c(c2)[C@]2(C)CCN(C(=O)c4ccc5nc[nH]c5c4)[C@H](C3)[C@H]2C)nn1` [Example 263, (3H-Benzoimidazol-5-yl)-[(2R,6R,11S)-6,11-dimethyl-8-(6-methyl-pyridazin-3-yl)-1,2,5,6-tetrahydro-4H-2,6-methano-benzo[d]azocin-3-yl]-methanone] returned an IC50 of 71 nM.

`C[C@@H]1[C@H]2Cc3ccc(-c4ccncn4)cc3[C@]1(C)CCN2C(=O)c1ccc2nc[nH]c2c1` [Example 264, (3H-Benzoimidazol-5-yl)-[(2R,6R,11S)-6,11-dimethyl-8-pyrimidin-4-yl-1,2,5,6-tetrahydro-4H-2,6-methano-benzo[d]azocin-3-yl]-methanone]: the IC50 stood at 78 nM.

In turn, `CC1(C)[C@H]2Cc3cc4nn[nH]c4cc3[C@]1(C)CCN2C(=O)c1ccc2nc[nH]c2c1` [Example 265, (3H-Benzoimidazol-5-yl)-[(6R,10S)-5,6,7,8,9,10-hexahydro-10,12,12-trimethyl-6,10-methano-1H-triazolo[5,4-i][3]benzazocin-7-yl]-methanone] gave an IC50 of 22 nM.

`CC1(C)[C@H]2Cc3cc4nc(-c5cnccn5)[nH]c4cc3[C@]1(C)CCN2C(=O)c1ccc2nc[nH]c2c1` [Example 266, (3H-Benzoimidazol-5-yl)-[(6R,10S)-5,6,7,8,9,10-hexahydro-10,12,12-trimethyl-2-pyrazin-2-yl-6,10-methano-imidazo[5,4-i][3]benzazocin-7-yl]-methanone] showed an IC50 of 42 nM. Against the preceding molecule, the IC50 is about 1.9-fold higher.

In turn, `COc1ccc2c(c1N)[C@]1(C)CCN(C(=O)c3ccc4nc[nH]c4c3)[C@H](C2)[C@H]1C` [Example 267, (3H-Benzoimidazol-5-yl)-[(2R,6R,11S)-7-amino-8-methoxy-6,11-dimethyl-1,2,5,6-tetrahydro-4H-2,6-methano-benzo[d]azocin-3-yl]-methanone] displayed an IC50 of 66 nM. This IC50 lies about 1.6-fold higher than the previous one.

Molecule `COc1ccc2c(c1NS(C)(=O)=O)[C@]1(C)CCN(C(=O)c3ccc4nc[nH]c4c3)[C@H](C2)[C@H]1C` [Example 268, N-[(2R,6R,11S)-3-(3H-Benzoimidazole-5-carbonyl)-8-methoxy-6,11-dimethyl-1,2,3,4,5,6-hexahydro-2,6-methano-benzo[d]azocin-7-yl]-methanesulfonamide] returned an IC50 of 931 nM.

For `CC(=O)N1CCC(c2nc3cc4c(cc3[nH]2)[C@]2(C)CCN(C(=O)c3ccc5nc[nH]c5c3)[C@H](C4)C2(C)C)CC1` [Example 269, [(6R,10S)-2-(1-Acetyl-piperidin-4-yl)-5,6,7,8,9,10-hexahydro-10,12,12-trimethyl-6,10-methano-imidazo[5,4-i][3]benzazocin-7-yl]-(3H-benzoimidazol-5-yl)-methanone], the half-inhibitory concentration (IC50) turned out to be 63 nM.

As to `COc1ccc2c(c1-n1cccc1)[C@]1(C)CCN(C(=O)c3ccc4nc[nH]c4c3)[C@H](C2)[C@H]1C` [Example 270, (3H-Benzoimidazol-5-yl)-[(2R,6R,11S)-8-methoxy-6,11-dimethyl-7-pyrrol-1-yl-1,2,5,6-tetrahydro-4H-2,6-methano-benzo[d]azocin-3-yl)-methanone], half-maximal inhibition (IC50) was put at 99 nM. This IC50 lies about 1.6-fold higher than the previous one.

`CC1(C)[C@H]2Cc3cc4nc(C5CC5)[nH]c4cc3[C@]1(C)CCN2C(=O)c1ccc2nc[nH]c2c1` [Example 271, (3H-Benzoimidazol-5-yl)-[(6R,10S)-2-cyclopropyl-5,6,7,8,9,10-hexahydro-10,12,12-trimethyl-6,10-methano-imidazo[5,4-i][3]benzazocin-7-yl]-methanone] had an IC50 of 50 nM.

With `Cn1cc(C2=NC3=CC4=C(CC3=N2)C[C@H]2N(C(=O)c3ccc5nc[nH]c5c3)CC[C@]4(C)C2(C)C)ccc1=O` [Example 272, (3H-Benzoimidazol-5-yl)-[(6R,10S)-5,6,7,8,9,10-hexahydro-10,12,12-trimethyl-2-(1-methyl-6-oxo-1,6-dihydro-pyridin-3-yl)-6,10-methano-imidazo[5,4-i][3]benzazocin-7-yl]-methanone], the pIC50 (read-out: 11β-HSD IC50) was 7.36.

For `CC(C)(C)c1nc2cc3c(cc2[nH]1)[C@]1(C)CCN(C(=O)c2ccc4nc[nH]c4c2)[C@H](C3)C1(C)C` [Example 273, (3H-Benzoimidazol-5-yl)-[(6R,10S)-2-tert-butyl-5,6,7,8,9,10-hexahydro-10,12,12-trimethyl-6,10-methano-imidazo[5,4-i][3]benzazocin-7-yl]-methanone], the IC50 was 35 nM.

With `CC1(C)[C@H]2Cc3cc4nc(-c5cccnc5)[nH]c4cc3[C@]1(C)CCN2C(=O)c1ccc2nc[nH]c2c1` [Example 274, (3H-Benzoimidazol-5-yl)-[(6R,10S)-5,6,7,8,9,10-hexahydro-10,12,12-trimethyl-2-pyridin-3-yl-6,10-methano-imidazo[5,4-i][3]benzazocin-7-yl]-methanone], the midpoint of inhibition, the IC50, lay at 51 nM.

With `CC1(C)[C@H]2Cc3cc4nc([C@@H]5CCCO5)[nH]c4cc3[C@]1(C)CCN2C(=O)c1ccc2nc[nH]c2c1` [Example 275, (3H-Benzoimidazol-5-yl)-[(6R,10S)-5,6,7,8,9,10-hexahydro-10,12,12-trimethyl-2-[(S)-tetrahydrofuran-2-yl]-6,10-methano-imidazo[5,4-i][3]benzazocin-7-yl]-methanone], the IC50 was 25 nM. Against the preceding molecule, the IC50 is about 2-fold lower.

`CC1(C)[C@H]2Cc3cc4nc(-c5ccnnc5)[nH]c4cc3[C@]1(C)CCN2C(=O)c1ccc2nc[nH]c2c1` [Example 276, (3H-Benzoimidazol-5-yl)-[(6R,10S)-5,6,7,8,9,10-hexahydro-10,12,12-trimethyl-2-pyridazin-4-yl-6,10-methano-imidazo[5,4-i][3]benzazocin-7-yl]-methanone] registered an IC50 of 34 nM. This IC50 and that of the molecule before are within 1.5-fold of each other.

`Cc1cnc(-c2nc3cc4c(cc3[nH]2)[C@]2(C)CCN(C(=O)c3ccc5nc[nH]c5c3)[C@H](C4)C2(C)C)cn1` [Example 277, (3H-Benzoimidazol-5-yl)-[(6R,10S)-5,6,7,8,9,10-hexahydro-10,12,12-trimethyl-2-(5-methyl-pyrazin-2-yl)-6,10-methano-imidazo[5,4-i][3]benzazocin-7-yl]-methanone] came in with an IC50 of 34 nM.

The molecule `CC1(C)[C@H]2Cc3ccccc3[C@]1(C)CCN2C(=O)c1ccc2nccnc2c1` [Example 278, Quinoxalin-6-yl-[(2R,6S)-6,11,11-trimethyl-1,2,5,6-tetrahydro-4H-2,6-methano-benzo[d]azocin-3-yl]-methanone] returned an IC50 of 438 nM.

For the molecule `C[C@@H]1[C@H]2Cc3ccc(-c4ccn(C)c(=O)c4)cc3[C@]1(C)CCN2C(=O)c1ccc2nc[nH]c2c1` [Example 279, (3H-Benzoimidazol-5-yl)-[(2R,6R,11S)-6,11-dimethyl-8-(1-methyl-2-oxo-1,2-dihydro-pyridin-4-yl)-1,2,5,6-tetrahydro-4H-2,6-methano-benzo[d]azocin-3-yl]-methanone], the IC50 is 52 nM.
